Our source for the IC50 values is patent US20040092524A1, “Novel aminophenyl piperazine or aminophenyl piperidine derivatives inhibiting prenyl transferase proteins and method for preparing same” (priority 2000, published 2004).

The target in assay [1] is T1, protein farnesyl transferase (Bos taurus, UniProt P29702+P49355).
T1 construct: partially purified from bovine brain by ion-exchange chromatography; from tissue; host or cells: bovine brain
The assay can be described thus: Inhibition of protein farnesyl transferase (dansyl-GCVLS fluorescence). The format is biochemical. Conditions: enzyme partially purified from bovine brain; 2 μM FPP, 2 μM dansyl GCVLS, 10 minutes at 37° C.; read-out: IC50 (PFTase). Here is the method:
A) Evaluation of the Inhibition of Protein Famesyl Transferase:
The famesylation of the dansylated peptide GCVLS, catalyzed with the enzyme protein famesyl transferase results in a change in the emission spectrum of the dansyl group, and especially an increase in the emission at 505 nm when the molecule is excited at 340 nm. When measured using the spectrofluorimeter, this emission is proportional to the activity of the enzyme (Pompliano et al., J. Am. Chem. Soc. 1992; 114: 7945-7946).
55 mM TRIS/HCl pH 7.5; 5.5 mM DTT; 5.5 mM MgCl2; 110 μM ZnCl2, 0.22% B-octyl-B D-glucopyrannoside.
Farnesyl pyrophosphate (FPP), (Sigma)
Dansylated peptide dansyl-GCVLS (Neosystem/Strasbourg, France)
The protein farnesyl transferase is partially purified from bovine brain by ion-exchange chromatography on Q-sepharose (Pharmacia) (Moores et al., J. Biol. Chem. 1991, 266: 14603-14610, Reiss et al., Cell 1990, 62: 81-88).
The reaction mixture containing 2 μM of FPP, 2 μM of dansyl GCVLS with or without (zero) the amount of enzyme giving an intensity of 100 on the spectrofluorimeter after incubation for 10 minutes at 37° C., is prepared on ice.
In an Eppendorf tube, 360 μL of reaction mixture are mixed with 40 μl of 10× concentrated test product or of solvent, and incubated for 10 minutes at 37° C. The reaction is quenched on ice and the fluorescence intensity is measured (excitation at 340 nm, 4 nm slit, emission at 505 nm, 10 nm slit). The tests are performed in duplicate. The results are expressed as a percentage of inhibition. Under these conditions, the derivatives of the present invention were identified as powerful inhibitors of protein farnesyl transferase (IC50<10 μM).
Adaptation of the method to a 96-well format:
The procedure is similar to that above, except that the measurements are performed in a “Black Fluorotrack 200” 96-well device (Greiner, Poitiers, France) and the readings are performed using a “Spectrametrix Gemini” 96-well fluorimeter (Molecular Devices, Sunnyvale, Calif., USA)

The target of another assay is T2, GGPT I (Bos taurus, UniProt P29702+Q5EAD5).
T2 construct: GGPT I is partially purified from bovine brain by ion-exchange chromatography; from tissue; host or cells: bovine brain
Kind of assay: Inhibition of geranylgeranyl transferase protein I (3H-GGPP, RhoA-GST filter assay). The format is biochemical. Conditions: enzyme partially purified from bovine brain; 0.2 μM 3H-GGPP, 1 μM RhoA-GST, 45 minutes at 37° C.; read-out: IC50 (PGGTase). The protocol:
B) Evaluation of the Inhibition of Geranyl Geraryl Transferase Protein I:
55 mM TRIS/HCl pH 7.5; 5.5 mM DTT; 5.5 mM MgCl2; 110 μM ZnCl2, 0.22% N-octyl-B D-glucopyrannoside.
^3H-geranylgeranyl pyrophosphate (GGPP), 66 μM, 15 CI/mmol, (Isotopchim) Rho-GST recombinant protein
GGPT I is partially purified from bovine brain by ion-exchange chromatography on Q-sepharose (Pharmacia); elution at 0.23 and 0.4 M NaCl, respectively.
The reaction mixture containing 0.2 μM of ^3H-GGPP, 1 μM of RhoA-GST with or without (zero) 5 μl of GGPT/test, is prepared on ice.
In an Eppendorf tube, 45 μl of reaction mixture are mixed with 5 μl of 10× concentrated test product or of solvent, and incubated for 45 minutes at 37° C. A 45 μl aliquot is placed on a phosphocellulose P81 filter (Whatman, Maidstone, UK) numbered, washed with 50% ethanol, phosphoric acid (0.5%) and counted by scintillation.
The tests are performed in duplicate. The results are expressed as a percentage of inhibition.
Adaptation of the Method to a 96-well Format: […]
The tests are performed in triplicate. The results are expressed as a percentage of inhibition.

Molecules are shown by their SMILES.

As to `N#Cc1ccc(Cn2cncc2CN(C(=O)c2cccs2)c2ccc(N3CCN(C(=O)c4ccc(Cl)s4)CC3)cc2)cc1` [Example 109, Thiophene-2-carboxylic acid {4-[4-(5-chloro-2-thiophenecarbonyl)-1-piperazinyl]phenyl}[3-(4-cyanobenzyl)-3H-imidazol-4-ylmethyl]amide], the IC50 – broadly, the midpoint of a concentration-inhibition curve – in assay [1] is 1 nM; at GGPT I, 700 nM.
In the case of `N#Cc1ccc(Cn2cncc2CN(c2ccc(N3CCN(C(=O)c4ccc(Cl)s4)CC3)cc2)S(=O)(=O)c2ccccc2C#N)cc1` [Example 126, N-{4-[4-(5-Chloro-2-thiophenecarbonyl)-1-piperazinyl]phenyl}-2-cyano-N-[3-(4-cyanobenzyl)-3H-imidazol-4-ylmethyl]benzenesulfonamide], the IC50 in assay [1] turned out to be 0.9 nM.
Consider `N#Cc1ccc(Cn2cncc2CN(C(=O)c2ccccc2F)c2ccc(N3CCN(C(=O)c4ccc(Cl)s4)CC3)cc2)cc1` [Example 113, N-{4-[4-(5-Chloro-2-thiophenecarbonyl)-1-piperazinyl]phenyl}-N-[3-(4-cyanobenzyl)-3H-imidazol-4-ylmethyl]-2-fluorobenzamide], for which the concentration for half-maximal inhibition (IC50) in assay [1] was 2 nM.
Consider `N#Cc1ccc(Cn2cncc2CN(C(=O)c2ccccc2)c2ccc(N3CCN(C(=O)c4ccc(Cl)s4)CC3)cc2)cc1` [Example 108, N-{4-[4-(5-Chloro-2-thiophenecarbonyl)-1-piperazinyl]phenyl}N-[3-(4-cyanobenzyl)-3H-imidazol-4-ylmethyl]benzamide], for which the IC50 in assay [1] was 2 nM.
Consider `N#Cc1ccc(Cn2cncc2CN(C(=O)c2ccccc2Cl)c2ccc(N3CCN(C(=O)c4ccc(Cl)s4)CC3)cc2)cc1` [Example 110, 2-Chloro-N-{4-[4-(5-chloro-2-thiophenecarbonyl)-1-piperazinyl]phenylk}-N-[3-(4-cyanobenzyl)-3H-imidazol-4-ylmethyl]benzamide], for which the IC50 in assay [1] amounted to 2 nM.
With `N#Cc1ccc(Cn2cncc2CN(C(=O)C2CCCCC2)c2ccc(N3CCN(C(=O)c4ccc(Cl)s4)CC3)cc2)cc1` [Example 124, Cyclohexanecarboxylic acid {4-[4-(5-chloro-2-thiophenecarbonyl)-1-piperazinyl]phenyl}-[3-(4-cyanobenzyl)-3H-imidazol-4-ylmethyl]amide], the 50% inhibitory concentration (IC50) in assay [1] was 2 nM.
Take `CC(C)CNC(=S)N1CCN(c2ccc(N(Cc3cnc[nH]3)S(=O)(=O)c3ccccc3)cc2)CC1` [Example 45, 4-{4-[Benzenesulfonyl-(3H-imidazol-4-ylmethyl)amino]phenyl}-1-piperazinecarbothioic acid isobutylamide]: the concentration for half-maximal inhibition (IC50) in assay [1] worked out at 6 nM.
In the case of `N#Cc1ccc(Cn2cncc2CN(C(=O)c2ccc(C#N)cc2)c2ccc(N3CCN(C(=O)c4ccc(Cl)s4)CC3)cc2)cc1` [Example 123, N-{4-[4-(5-Chloro-2-thiophenecarbonyl)-1-piperazinyl]phenyl}-4-cyano-N-[3-(4-cyanobenzyl)-3H-imidazol-4-ylmethyl]-benzamide], the IC50 in assay [1] is 2 nM.
Consider `CCCNC(=O)N(Cc1cnc[nH]1)c1ccc(N2CCN(C(=O)c3ccc(Cl)s3)CC2)cc1` [Example 82, 1-{4-[4-(5-Chloro-2-thiophenecarbonyl)-1-piperazinyl]phenyl}-1-(3H-imidazol-4-ylmethyl)-3-propyl-urea], for which the IC50 in assay [1] stood at 7 nM.
The same measure, in the same setting: in the case of `N#Cc1ccc(Cn2cncc2CN(C(=O)c2cccc(F)c2)c2ccc(N3CCN(C(=O)c4ccc(Cl)s4)CC3)cc2)cc1` [Example 114, N-{4-[4-(5-Chloro-2-thiophenecarbonyl)-1-piperazinyl]phenyl}-N-[3-(4-cyanobenzyl)-3H-imidazol-4-ylmethyl]-3-fluorobenzamide] it was 2 nM.
In the case of `CC(C)CNC(=S)N1CCC(c2ccc(N(Cc3cnc[nH]3)S(=O)(=O)c3ccccc3)cc2)CC1` [Example 141, 4-{4-[Benzenesulfonyl-(3H-imidazol-4-ylmethyl)amino]phenyl}piperidine-1-carbothioic acid isobutylamide], the IC50 in assay [1] is 9 nM.
